We go through 14 compounds from PubChem BioAssay (NCI).

Molecules are shown by their SMILES. Values joined by “and” are separate entries in the source; they are usually repeats but may differ in a detail not shown here. Identical values can stand only once.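 Exposure lasted 48 hours, with cells grown in 96-well plates and compounds tested at five concentrations. Abbreviation: GI50, concentration required for 50% inhibition of growth. Definition used: TGI = concentration required for complete inhibition of growth.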

Experiment in all cases: DTP human tumour cell line panel, 48 h
The test system of experiment [1] is 786-0 renal.
The subject of experiment [2] is ACHN renal.
Experiment [3] relates to CCRF-CEM leukemia.
The subject of experiment [4] is HCC-2998 colon.
The test system of experiment [5] is MALME-3M melanoma.
Experiment [6] deals with NCI-H522 lung.
In experiment [7] the test system is OVCAR-3 ovarian.
Experiment [8] relates to OVCAR-5 ovarian.
The test system of experiment [9] is RXF 393 renal.
Experiment [10] concerns SF-268 CNS.

On to `O=C(NOC[C@H](O)CO)c1ccc(F)c(F)c1Nc1ccc(I)cc1F`, for which the GI50 in [1] is 21.6 µM and > 10 µM; in [3], > 100 µM; in experiment [5] it was < 0.01 µM; in [7] it was 37.6 µM and > 10 µM; in [8] it was < 0.01 µM and 0.0036 µM; in experiment [9], 0.363 µM and 0.342 µM. In experiment [10], the GI50 was 25.6 µM and > 2.28 µM. Also, the concentration for total growth inhibition (TGI) in experiment [1] was > 100 µM; in experiment [2], > 100 µM; in [3], > 100 µM; in [4], 2.24 µM; in [5] it was < 0.01 µM and 0.00323 µM; in [6] it was > 100 µM. The TGI in experiment [7] was > 100 µM; in experiment [8], > 100 µM; in [9], 43.4 µM and > 10 µM; in [10] it was > 100 µM.
In the case of `CCNC(=O)COc1ccc(Br)cc1Br`, the concentration for total growth inhibition (TGI) in experiment [1], in experiment [2], in experiment [3], in experiment [4], in experiment [5] and in experiment [6] was > 100 µM in each case. For the same compound, the TGI in experiment [7], in experiment [8], in experiment [9] and in [10] was > 100 µM throughout.
With `O=C(/C=C/C12c3ccccc3C(c3ccccc31)C1C(=O)NC(=O)C12)c1ccc(Cl)cc1Cl` (stereo not drawn), the GI50 in experiment [1] is 1.7 µM; in experiment [2] it was 1.76 µM; in experiment [3] it was 1.89 µM; in [4] it was 1.81 µM; in [5], 1.71 µM; in [6] it was 1.69 µM. Moreover, the GI50 is 1.71 µM in [7], 1.72 µM in experiment [8], 1.73 µM in [9] and 1.79 µM in experiment [10]. Moreover, the TGI in experiment [1] is 3.22 µM; in [2], 3.15 µM; in experiment [3], 7.23 µM; in experiment [4] it was 3.41 µM; in experiment [5], 3.12 µM; in experiment [6], 3.41 µM. Besides, the TGI amounted to 3.16 µM in [7], 3.3 µM in experiment [8], 3.22 µM in experiment [9] and 3.44 µM in experiment [10].
For the compound `CC(=O)N/N=C1\CC(C)(C)C2CCC1C2` (stereo not drawn), the TGI in experiment [1], in experiment [2], in [3], in experiment [5], in experiment [6] and in experiment [7] was > 100 µM throughout. Also, the TGI in experiment [8], in experiment [9] and in experiment [10] was > 100 µM throughout.
As for `CCC1CC2C(=O)N(c3ccccc3)C(=O)C2c2[nH]c3ccccc3c21` (stereo not drawn), the TGI in experiment [1] was 47.6 µM; in experiment [2], > 100 µM; in experiment [3], > 100 µM; in [4], > 100 µM; in experiment [5], 38.7 µM; in experiment [7], 44.9 µM. Besides, the TGI in [8] was > 100 µM; in experiment [9], 59.6 µM; in experiment [10] it was 80 µM.
Consider `CC1/C=C/[C@@]2(C)CCC(C(C)(C)O)C2C(O)C[C@](C)(O)/C=C/C1` (stereo partly drawn), for which the TGI in [1], in [2], in experiment [3], in experiment [4], in [5] and in experiment [7] was > 100 µM throughout. Further, the TGI in experiment [8], in experiment [9] and in experiment [10] was > 100 µM in each case.
`CCc1ccc(NC(=O)NC(=O)c2ccccc2[N+](=O)[O-])cc1Oc1ncc(Cl)cn1`: the TGI in experiment [1] is 1.01 µM; in [2], > 100 µM; in experiment [3] it was > 100 µM; in experiment [4] it was 0.0695 µM; in experiment [5], > 100 µM; in experiment [7] it was 13.9 µM. Moreover, the TGI in [8] was > 100 µM; in experiment [9] it was 73.4 µM; in experiment [10] it was > 16.9 µM.
Regarding `C/C=C(/I)CBr`, the total growth inhibition concentration (TGI) in experiment [1] turned out to be 30.8 µM; in experiment [2], 45.5 µM; in experiment [3], 23.4 µM; in experiment [4], 29.4 µM; in experiment [5], 31.4 µM; in experiment [6], 4.35 µM. The TGI was determined as 31.2 µM in [9] and 74.5 µM in [10].
As to `CC(Oc1ccc2c(-c3ccccc3)cc(=O)oc2c1)C(=O)O` (stereo not drawn), the TGI in experiment [1], in experiment [2], in experiment [3], in experiment [4], in experiment [5] and in experiment [6] was > 100 µM in each case. For the same compound, the TGI in experiment [7], in experiment [9] and in experiment [10] was > 100 µM throughout.
Turning to `CC1=C[C@H]2c3c([nH]c4ccccc34)C(c3c[nH]c4ccccc34)[C@H]2CC1` (stereo partly drawn), the total growth inhibition concentration (TGI) in experiment [1] worked out at 11.2 µM; in experiment [2], 25 µM; in [3], 10.9 µM; in [4] it was 12.4 µM; in experiment [5] it was 35.1 µM; in experiment [6] it was 18.5 µM. For the same compound, in experiment [9], the TGI amounted to 4.19 µM.
On to `NC1=C(NC(=O)Cc2ccccc2F)C(=O)c2ccccc2C1=O`, for which the TGI in [1] is 98.2 µM; in experiment [2], > 100 µM; in [3], > 100 µM; in experiment [4] it was > 100 µM; in experiment [5], 50.9 µM; in experiment [6] it was > 100 µM. The TGI in experiment [7] is 66.9 µM; in experiment [9], 56.5 µM; in experiment [10], > 100 µM.
In the case of `CCOC(=O)C(=O)Nc1ccccc1C`, the TGI in [1], in experiment [2], in experiment [3], in [4], in experiment [5] and in experiment [6] was > 100 µM throughout. Besides, the TGI in [8], in experiment [9] and in experiment [10] was > 100 µM throughout.
For the compound `COc1ccc(NC(=O)CSC2=C(Nc3cccc(Br)c3)C(=O)N(Cc3ccccc3)C2=O)cc1Cl`, the GI50 in experiment [1] is > 100 µM; in experiment [2] it was > 100 µM; in experiment [3], 1.72 µM; in experiment [6], 6.85 µM; in experiment [7] it was > 100 µM; in experiment [9], > 100 µM. Moreover, in [10], the GI50 was 21.5 µM. For the same compound, the total growth inhibition concentration (TGI) in experiment [1] was > 100 µM; in experiment [2], > 100 µM; in experiment [3], 29.6 µM; in experiment [6], 82.2 µM; in experiment [7], > 100 µM; in [9], > 100 µM. Also, the concentration for total growth inhibition (TGI) in experiment [10] is > 100 µM.
For `CCC(=O)c1c(NOC2OCC(OC(C)=O)C(OC(C)=O)C2OC(C)=O)nc(OC)n(C)c1=O` (stereo not drawn), the TGI in experiment [1], in [2], in experiment [3], in [4], in experiment [5] and in [7] was > 100 µM each time. Besides, the TGI in experiment [8], in experiment [9] and in [10] was > 100 µM throughout.

Broadly, the GI50 is the concentration giving 50% growth inhibition. For orientation: TGI means the concentration at which net growth stops. The low end stands for greater sensitivity of the cells, the high end for lower sensitivity of the cells.
